Reference: patent US20240254093A1, “GPR35 Agonist Compounds” (Heptares Therapeutics Limited, priority 2021, published 2024)
pEC50, pKi: −log10 of the molar value.

Columns and labels:
[1] = biological target: Human GPR35a isoform (Homo sapiens (Human), UniProt Q9HC97); assay: Human GPR35a isoform binding (radioligand, HEK293f membranes); details: HEKf cell membranes overexpressing GPR35a isoform; read-out: Human GPR35 Ki
Experimental: Overexpression of Human GPR35a Baculovirus in HEK293f cells at a cell density of 2.5×10^6 cells/mL and a multiplicity of infection of 2.5 over 24 h in Pro293 (Lonza)+5% FBS, 1% Glutamax and 0.4% Pen/Strep. Cells harvested and centrifuged at 2500 RPM for 10 mins at 4° C. The supernatant was then poured off and the pellet stored at −80° C. The pellet was defrosted and re-suspended in 15 mL of homogenising buffer (20 mM HEPES, 10 mM EDTA, pH 7.4). Then homogenised in mechanical homogeniser (VMR) for 10 seconds. The membrane was centrifuged in centrifuge tubes at 40,000 g for 15 mins at 4° C. The supernatant was poured away and re-suspended in 15 mL of homogenising buffer. Homogenised for 20 seconds. The membrane was centrifuged at 40,000 g for 45 mins at 4° C. The membrane was re-suspended in 3 mL of storage buffer (20 mM HEPES, 0.1 mM EDTA, pH 7.4) mixing well. The resulting membranes were then stored at −80°. GPR35 cell membrane homogenates were re-suspended in the binding buffer (50 mM TRIS+10 mM MgCl2 pH 7.4) to a final assay concentration of 5 ug/well. Test compounds were diluted in dimethylsulphoxide (DMSO (Sigma Aldrich, UK)), to form a 10 point ½ log concentration curve. Test compounds were added per plate, followed by 7 nM 3H-27966. 0.1 uM FAC Lodoxamide was added in order to allow non-specific binding to be calculated. Finally, membrane was added to each well on the plate. After 60 min incubation at room temperature, membranes were filtered onto a unifilter, 96-well white microplate with bonded GF/B filter, pre-soaked in ddH20, with a TomTec cell harvester, and washed 5 times with distilled water. Plates were dried prior to 50 ul/well scintillant added, sealed and radioactivity measured using a MicroBeta analyser. IC50 values were derived from the inhibition curve and affinity constant (Ki) values were calculated using the Cheng-Prussoff equation, where; pKi=−log 10 Ki.
(§1) • Ki values derived from concentration response analysis in HEKf cell membranes overexpressing GPR35a isoform. EC50 values derived from concentration response analysis in HT-29 cell line endogenously expressing human GPR35.

[2] = biological target: GPR35 (Homo sapiens (Human), UniProt Q9HC97); assay: Label-free DMR functional assay in HT-29 cells; format: cell-based; details: HT-29 cell line endogenously expressing human GPR35; DMR normalised to Lodoxamide
Sequence of GPR35 (Q9HC97 whole entry): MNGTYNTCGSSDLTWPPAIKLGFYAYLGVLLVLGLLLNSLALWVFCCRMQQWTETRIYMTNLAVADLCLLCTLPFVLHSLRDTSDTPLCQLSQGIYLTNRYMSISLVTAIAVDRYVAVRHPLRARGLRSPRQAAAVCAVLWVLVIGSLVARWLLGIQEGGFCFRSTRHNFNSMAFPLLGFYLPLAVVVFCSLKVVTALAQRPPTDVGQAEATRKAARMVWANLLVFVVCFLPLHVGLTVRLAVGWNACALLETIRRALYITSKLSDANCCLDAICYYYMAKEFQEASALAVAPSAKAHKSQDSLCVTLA
Experimental: HT-29 cells (ATCC HTB-38) kept in continuous culture in McCoys (Thermo 16600082) supplemented with 10% FBS. Day prior to assay, cells harvested with TrypLE (Gibco12604-013), and plated at 20 k/well in culture media in a total volume of 50 ul in Corning EPIC 384 well plates (5040) overnight 37° C. 5% CO2. On the day of assay, cell media was removed and replaced with assay buffer (HBSS+20 mM HEPES pH7.4) and reincubated for 1 h. Compounds were prepared in 100% DMSO in ECHO LDV 384 source plates. Cell plates were read on an EPIC plate reader at room temperature for 15 mins, read paused, and cell plate added to LabCyte ECHO 550 for addition of 50 nl per well compound by acoustic transfer. Plates were immediately placed back into the EPIC reader, read unpaused and Dynamic Mass Redistribution measured for 60 minutes. Raw data was analysed by EPIC Analyser software and max peak taken per concentration to enable EC50 determination. All raw DMR data was normalised to Lodoxamide and buffer corrected.
as §1

Sequence of Human GPR35a isoform (Q9HC97 whole entry, canonical isoform): as the sequence (Q9HC97 whole entry) above

Row | Structure (SMILES) | pKi [1] | pEC50 [2]
1 | CCc1cc(Nc2c(O)c(=O)c2=O)cc(-c2nn[nH]n2)c1 [Example 10, 3-((3-ethyl-5-(1H-tetrazol-5-yl)phenyl)amino)-4-hydroxycyclobut-3-ene-1,2-dione] | 8.56 | 8.63
2 | O=c1c(O)c(Nc2cc(-c3nn[nH]n3)cc(C3CCCCC3)c2)c1=O [Example 28, 3-((3-cyclohexyl-5-(1H-tetrazol-5-yl)phenyl)amino)-4-hydroxycyclobut-3-ene-1,2-dione] | 7.90 | 8.18
3 | CCOC(=O)c1cccc(-c2cc(Nc3c(O)c(=O)c3=O)cc(-c3nn[nH]n3)c2)c1 [Example 4, ethyl 3′-((2-hydroxy-3,4-dioxocyclobut-1-en-1-yl)amino)-5′-(1H-tetrazol-5-yl)-[1,1′-biphenyl]-3-carboxylate] | 8.42 | 8.60
4 | O=C(O)c1cccc(-c2cc(Nc3c(O)c(=O)c3=O)cc(-c3nn[nH]n3)c2)c1 [Example 11, 3′-((2-hydroxy-3,4-dioxocyclobut-1-en-1-yl)amino)-5′-(1H-tetrazol-5-yl)-[1,1′-biphenyl]-3-carboxylic acid] | 8.20 | 8.37
5 | O=c1c(O)c(Nc2cc(-c3ccc(OCCOc4cc(C(F)(F)F)cc(C(F)(F)F)c4)nc3)cc(-c3nn[nH]n3)c2)c1=O [Example 26, 3-((3-(6-(2-(3,5-bis(trifluoromethyl)phenoxy)ethoxy)pyridin-3-yl)-5-(1H-tetrazol-5-yl)phenyl)amino)-4-hydroxycyclobut-3-ene-1,2-dione] | 9.44 | 8.98
6 | O=c1c(O)c(Nc2ccc(F)c(-c3nn[nH]n3)c2)c1=O [Example 13, 3-((4-fluoro-3-(1H-tetrazol-5-yl)phenyl)amino)-4-hydroxycyclobut-3-ene-1,2-dione] | 9.00 | 8.62
7 | O=c1c(O)c(Nc2cc(-c3ccc4[nH]ncc4c3)cc(-c3nn[nH]n3)c2)c1=O [Example 25, 3-((3-(1H-indazol-5-yl)-5-(1H-tetrazol-5-yl)phenyl)amino)-4-hydroxycyclobut-3-ene-1,2-dione] | 9.43 | 9.36
8 | O=C(NCc1ccccc1)c1cccc(-c2cc(Nc3c(O)c(=O)c3=O)cc(-c3nn[nH]n3)c2)c1 [Example 6, N-benzyl-3′-((2-hydroxy-3,4-dioxocyclobut-1-en-1-yl)amino)-5′-(1H-tetrazol-5-yl)-[1,1′-biphenyl]-3-carboxamide] | 8.74 | 9.21
9 | O=C(NCc1ccc(C(F)(F)F)cc1)c1ccc(-c2cc(Nc3c(O)c(=O)c3=O)cc(-c3nn[nH]n3)c2)cc1 [Example 12, 3′-((2-hydroxy-3,4-dioxocyclobut-1-en-1-yl)amino)-5′-(1H-tetrazol-5-yl)-N-(4-(trifluoromethyl)benzyl)-[1,1′-biphenyl]-4-carboxamide] | 9.51 | 10.52
10 | O=c1c(O)c(Nc2cc(-c3ccnnc3)cc(-c3nn[nH]n3)c2)c1=O [Example 29, 3-hydroxy-4-((3-(pyridazin-4-yl)-5-(1H-tetrazol-5-yl)phenyl)amino)cyclobut-3-ene-1,2-dione] | 9.13 | 8.98
11 | NC(=O)c1ccc(CNC(=O)c2ccc(-c3cc(Nc4c(O)c(=O)c4=O)cc(-c4nn[nH]n4)c3)cc2)cc1 [Example 31, N-(4-carbamoylbenzyl)-3′-((2-hydroxy-3,4-dioxocyclobut-1-en-1-yl)amino)-5′-(1H-tetrazol-5-yl)-[1,1′-biphenyl]-4-carboxamide] | 8.79 | 7.95
12 | O=c1c(O)c(Nc2cc(-c3ccccc3)cc(-c3nn[nH]n3)c2)c1=O [Example 3, 3-((5-(1H-tetrazol-5-yl)-[1,1′-biphenyl]-3-yl)amino)-4-hydroxycyclobut-3-ene-1,2-dione] | – | 8.64
13 | O=c1c(O)c(Nc2cccc(-c3nn[nH]n3)c2)c1=O [Example 1, 3-((3-(1H-tetrazol-5-yl)phenyl)amino)-4-hydroxycyclobut-3-ene-1,2-dione] | – | 8.06
